In patent US8765688B2, “Anti-dandruff compositions containing peptides” (priority 2007, dated 2014):
Numbered stars: 1 amine (or outer) side, 2 acyl side, 3 side chain; on linkers, the order of the positions; unused ones are H or OH. Bridge positions count the residues as written; N and C are the ends. Square brackets hold non-standard residues; d marks the D form. Ends that are not written are not given here. Peptide text beside a SMILES is read from it. * marks the point of attachment. Orn(4R-OH,5R-OH) = O=C([C@H](C[C@@H](O)[C@@H](O)N[*:3])N[*:1])[*:2]; hTyr(3S-OH,4S-OH) = N[C@H](C(=O)O)[C@H](O)[C@@H](O)c1ccc(O)cc1; Pro(3S-OH,4S-Me) = C[C@H]1CN[C@H](C(=O)O)[C@H]1O; Benzoyl(4-octyloxy) = CCCCCCCCOc1ccc(C(=O)*)cc1; Hyp = O=C(O)[C@@H]1C[C@@H](O)CN1

Columns and labels:
Malassezia furfur [1] = details: cited from earlier work; for growth inhibition of M. furfur (in words): 25 μM, Lopez-Garcia et al., 2006
Candida albicans = details: cited from earlier work
Malassezia furfur [2] = assay: Growth inhibition of Malassezia furfur with equal concentrations (% by weight) of P18, Zincpyrithione, Climbazole and Ketoconazole, CFU; assay type: cell-based; details: 362 μM final conc., mean ± SD
Description: (§1) Growth medium: M472-Pityrosporum medium according to DSMZ
(§2) The components were sterilized at 121° C., 1 bar superatmospheric pressure for 20 minutes.
(§3) 2 g/L of olive oil (sterilized by filtration and, after autoclaving, added to the other components)
(§4) Since it was a two-phase medium, the complete medium was treated with sonication in order to enlarge the phase boundary.
(§5) For agar plates, if appropriate, 150 g/L of agar agar were added to the medium.
(§6) The growth test was carried out as follows: A shake flask with M472-Pityrosporum medium was inoculated with M. furfur and incubated with shaking overnight at 30° C. and 200 rpm.
A 96-well microtiter plate was filled with in each case 100 μl of M472-Pityrosporum medium and inoculated with M. furfur suspension of the overnight culture. The M. furfur suspension was adjusted at the start of the experiment to an optical density, measured at 600 nm, of 0.02. The concentrates of the inhibitor solutions were 1 mM in DMSO for the peptide P18 and 10 mM in DMSO for Zincpyrithione, Ketoconazole and Climbazole. The DMSO final concentrations were maintained the same in all experiments. This means that a corresponding volume of DMSO was added to the mixture in the case of a higher concentration of Zincpyrithione, Ketoconazole or Climbazole concentrate in order to ensure comparability to the mixtures containing P18.
(§7) The growth of the following batches was compared by measuring the optical density:
M. furfur suspension and addition of P18 solution with a final concentration of 50 μM (equal to 0.0115% (w/w))
M furfur suspension and addition of Zincpyrithione (ZPT) solution with a final concentration of 362 μM (comparison to the mixture containing 50 μM of the peptide P18)
M furfur suspension and addition of Ketoconazole solution with a final concentration of 216 μM (comparison to the mixture containing 50 μM of the peptide P18)
M furfur suspension and addition of Climbazole solution with a final concentration of 390 μM (comparison to the mixture containing 50 μM of the peptide P18)
(§8) The microtiter plate was incubated with shaking at 30° C.
After 24 hours of incubation, the colony-forming units (CFU) were determined by plating out 10 μl of medium from each of the suspensions on agar plates. After incubation for 6 days, the colonies on the plates were counted. The CFU was determined in order to exclude an influence of the two-phase medium and also the growth form of M. furfur on the optical density. The experiments were carried out in at least two independent experiments, each with double determination.

Malassezia furfur [3] = assay: Inhibition of Malassezia furfur growth test (optical density and colony-forming units), Examples 1 and 2; assay type: cell-based; details: solution in DMSO, 25 μM; for colony-forming units: 10 μl plated out
Description: Growth medium: M472-Pitysporum medium according to DSMZ
as §2
2 g/l of olive oil were sterilized by filtration and, after autoclaving, added to the other components.
as §4
For agar plates, if appropriate, […] of agar agar were added to the medium.
The growth test was carried out as follows: A shake flask with M472-Pitysporum medium was inoculated with M. furfur and incubated with shaking overnight at 30° C. and 200 rpm.
A 96-well microtiter plate was filled with in each case 100 μl of M472-Pitysporum medium and inoculated with M. furfur suspension of the overnight culture. The M. furfur suspension was adjusted at the start of the experiment to an optical density, measured at 620 nm, of 0.02. The concentrates of the inhibitor solutions were 1 mM in water or DMSO.
as §7
M. furfur suspension without the addition of an inhibitor.
This was to exclude that an inhibition is attributable merely to the effect of the DMSO, or a false positive result being observed.
M. furfur suspension and addition of an aqueous P18 solution with a final concentration of 25 μM.
M. furfur suspension and addition of a P18 solution in DMSO with a final concentration of 25 μM.
M. furfur suspension and addition of a zinc pyrithione (ZPT, Sigma-Aldrich) solution in DMSO with a final concentration of 25 μM.
M. furfur suspension and addition of a Ketoconazole (Sigma-Aldrich) solution in DMSO with a final concentration of 25 μM.
as §8
[…] The colony-forming units (CFU) were then determined by plating out 10 μl from each of the suspensions and, after incubation for 6 days, counting the colonies. The CFU was determined in order to exclude an influence of the two-phase medium and also the growth form of M. furfur on the optical density. […] The experiments were carried out at least in triple determinations and independently repeated.
For this, the procedure was as described in Example 1. 1 mM stock solutions of the fusion peptide P18, magainin 2 and cecropin A in DMSO were prepared. The final concentrations of the peptides in the growth experiments were 25 μM. The same amount of DMSO was likewise added to the suspension without inhibitor in order to exclude a growth-inhibiting effect of the DMSO.
The growth of the following mixtures was compared by measuring the optical density:
This was to exclude that an inhibition is attributable merely to the effect of the DMSO.
M. furfur suspension and addition of a magainin 2 solution in DMSO with a final concentration of 25 μM.
M. furfur suspension and addition of a cecropin A solution in DMSO with a final concentration of 25 μM.
M. furfur suspension and addition of a peptide P18 (SEQ ID NO3) solution in DMSO with a final concentration of 25 μM.

Malassezia furfur [4] = assay: Incubation times with P18 from 5 minutes to 1 hour, CFU of M. furfur, compared to Zincpyrithione; assay type: cell-based
Description: Since growth inhibition of M. furfur by the peptide P18 (P18 peptide sequence H-KWKLFKKIPKFLHLAKKF-NH2; SEQ ID NO: 3) had so far only been analyzed over incubation times of more than one hour, now the effect of the peptide P18 within the first minutes of incubation (5 minutes, 10 minutes and 20 minutes) up to the first hour after adding to the M. furfur overnight culture was tested and compared to the reference substance Zincpyrithione (Sigma Aldrich). For this, the peptide P18 and the reference substance Zincpyrithione were used in concentrations of 100 μM, 200 μM and 500 μM. The experiments were carried out as follows:
as §1, §2, §3, §4, §5, §6
A 96-well microtiter plate was filled with in each case 100 μl of M472-Pityrosporum medium and inoculated with M. furfur suspension of the overnight culture. The M. furfur suspension was adjusted at the start of the experiment to an optical density, measured at 600 nm, of 0.1.
The growth of the following batches was compared:
M. furfur suspension and addition of the peptide P18 with a final concentration of 100 μM, plating out after 5 minutes, 10 minutes, 20 minutes and 60 minutes
M. furfur suspension and addition of the peptide P18 with a final concentration of 200 μM plating out after 5 minutes, 10 minutes, 20 minutes and 60 minutes
M. furfur suspension and addition of the peptide P18 with a final concentration of 500 μM plating out after 5 minutes, 10 minutes, 20 minutes and 60 minutes
M. furfur suspension and addition of Zincpyrithione with a final concentration of 100 μM plating out after 5 minutes, 10 minutes, 20 minutes and 60 minutes
M. furfur suspension and addition of Zincpyrithione with a final concentration of 200 μM plating out after 5 minutes, 10 minutes, 20 minutes and 60 minutes
M. furfur suspension and addition of Zincpyrithione with a final concentration of 500 μM plating out after 5 minutes, 10 minutes, 20 minutes and 60 minutes
as §8
After the incubation times indicated above, the colony-forming units (CFU) were determined by plating out 50 μl from each of the suspensions and, after incubation for 6 days, counting the colonies. The CFU was determined in order to exclude an influence of the two-phase medium and also the growth form of M. furfur on the optical density. The experiments were independently repeated.

## Cecropin P1 (SWLSKTAKKLENSAKKRISEGIAIAIQGGPR; Cecropin-P1; UniProt P14661 14-44, looked up)
Malassezia furfur [1]
  growth inhibition of M. furfur (in words): moderate antifungal effect

## phytosphingosines
Candida albicans; Nenoff et al., 2002
  concentrations inhibiting Candida albicans: 152 to 269 µg/mL

## basic phytosphingosines
Malassezia furfur [1]; Nenoff et al., 2002
  concentration inhibiting M. furfur: 6250 µg/mL

## phytosphingosine salts
Malassezia furfur [1]; Nenoff et al., 2002
  sensitivity of M. furfur (in words): appeared to be resistant

## zinc pyrithione [ZPT, reference compound]
Malassezia furfur [2]; incubation time 24 h
  colony-forming units: 60 ± 40
Malassezia furfur [2]; incubation time 40 h
  colony-forming units: 26 ± 7
Malassezia furfur [3]; incubation time 0 h
  optical density: 0
Malassezia furfur [3]; incubation time 16 h
  optical density: 0
  colony-forming units: 42
Malassezia furfur [3]; incubation time 24 h
  optical density: 0
  colony-forming units: 22
Malassezia furfur [3]; incubation time 40 h
  optical density: 0
  colony-forming units: 28
Malassezia furfur [4]; final concentration 100 μM, 5 minutes
  colony-forming units after the indicated incubation time: >1000
Malassezia furfur [4]; final concentration 100 μM, 10 minutes
  colony-forming units after the indicated incubation time: >1000
Malassezia furfur [4]; final concentration 100 μM, 20 minutes
  colony-forming units after the indicated incubation time: >1000
Malassezia furfur [4]; final concentration 100 μM, 60 minutes
  colony-forming units after the indicated incubation time: >1000
Malassezia furfur [4]; final concentration 200 μM, 5 minutes
  colony-forming units after the indicated incubation time: >1000
Malassezia furfur [4]; final concentration 200 μM, 10 minutes
  colony-forming units after the indicated incubation time: >1000
Malassezia furfur [4]; final concentration 200 μM, 20 minutes
  colony-forming units after the indicated incubation time: >1000
Malassezia furfur [4]; final concentration 200 μM, 60 minutes
  colony-forming units after the indicated incubation time: >1000
Malassezia furfur [4]; final concentration 500 μM, 5 minutes
  colony-forming units after the indicated incubation time: >1000
Malassezia furfur [4]; final concentration 500 μM, 10 minutes
  colony-forming units after the indicated incubation time: >1000
Malassezia furfur [4]; final concentration 500 μM, 20 minutes
  colony-forming units after the indicated incubation time: >1000
Malassezia furfur [4]; final concentration 500 μM, 60 minutes
  colony-forming units after the indicated incubation time: >1000

## magainin 2 [reference compound]
Malassezia furfur [3]; incubation time 64 h
  CFU: >10 000
Malassezia furfur [3]; incubation time 72 h
  CFU: >10 000
Malassezia furfur [1]
  growth inhibition of M. furfur (in words): comparably better effect

## cecropin A (KWKLFKKIEKVGQNIRDGIIKAGPAVAVVGQATQIAK; ends and bridges not checked; UniProt P01507 27-63, looked up) [peptide of 37 amino acids from Hyalophora cecropia, reference compound]
Malassezia furfur [3]; incubation time 64 h
  CFU: >5000
Malassezia furfur [3]; incubation time 72 h
  CFU: >5000

## CCCCCCCCOc1ccc(C(=O)N[C@H]2C[C@@H](O)[C@@H](O)NC(=O)[C@@H]3[C@@H](O)[C@@H](C)CN3C(=O)[C@H]([C@@H](C)O)NC(=O)[C@H]([C@H](O)[C@@H](O)c3ccc(O)cc3)NC(=O)[C@@H]3C[C@@H](O)CN3C(=O)[C@H]([C@@H](C)O)NC2=O)cc1 [cilofungin] ({Benzoyl(4-octyloxy)}-[Orn(4R-OH,5R-OH)]T[Hyp][hTyr(3S-OH,4S-OH)]T[Pro(3S-OH,4S-Me)]; lactam 1-C)
Candida albicans; cilofungin concentration of 0.62 μg/ml, Hanson et al. 1989
  C. albicans strains that did not grow: 76%
Malassezia furfur [1]; 0.62 μg/ml, Hanson et al. 1989
  inhibition of M. furfur (in words): not inhibited

## CC(=O)N1CCN(c2ccc(OCC3COC(Cn4ccnc4)(c4ccc(Cl)cc4Cl)O3)cc2)CC1 (stereo not drawn) [Ketoconazole, reference compound]
Malassezia furfur [3]; incubation time 0 h
  optical density: 0
Malassezia furfur [3]; incubation time 16 h
  optical density: 0
  colony-forming units: 80
Malassezia furfur [3]; incubation time 24 h
  optical density: 0.004
  colony-forming units: 22
Malassezia furfur [3]; incubation time 40 h
  optical density: 0.013
  colony-forming units: 90
